We go through 3 molecules from PubChem BioAssay AID1259411 (Chemical Carcinogenesis Research Information System (CCRIS), 2018).

This series relates to rodent carcinogenicity bioassays, tumor incidence. As to the kind of experiment: CCRIS carcinogenicity studies. The method, boiled down:
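NCI-built, expert-reviewed records of carcinogenicity and related test outcomes (mutagenicity, tumor promotion/inhibition) compiled from published and report sources, historical span 1985-2011, not updated.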

Active and inactive are the calls of the source. How the calls were made is not given here.

In the case of `O=C1NC(=O)C(c2ccccc2)(c2ccccc2)N1`, the carcinogen call (Species: MOUSE, Route: INTRAPERITONEAL, ORAL, Tumor Site: Type of Lesion: HEMATOPOIETIC SYSTEM (LEUKEMIA), LYMPHATIC SYSTEM: LYMPHOMA) was “active; positive”; the carcinogen call (Species: MOUSE, Strain/Sex: B6C3F1/FEMALE, Route: IN UTERO, ORAL, Dose: 0, 21 PPM IN DIET FED TO MOTHERS 1 WK BEFORE BREEDING, THROUGH BREEDING, GESTATION AND LACTATION, THEN DIETS WITH 60 PPM) was “inactive; negative”; the carcinogen call (Species: MOUSE, Strain/Sex: B6C3F1/FEMALE, Route: IN UTERO, ORAL, Dose: 0, 70 PPM IN DIET FED TO MOTHERS 1 WK BEFORE BREEDING, THROUGH BREEDING, GESTATION AND LACTATION, THEN DIETS WITH 200 PP) is “inactive; negative”; the carcinogen call (Species: MOUSE, Strain/Sex: B6C3F1/FEMALE, Route: IN UTERO, ORAL, Dose: 0, 210 PPM IN DIET FED TO MOTHERS 1 WK BEFORE BREEDING, THROUGH BREEDING, GESTATION AND LACTATION, THEN DIETS WITH 0, 20, Tumor Site: Type of Lesion: LIVER: HEPATOCELLULAR ADENOMA, HEPATOCELLULAR CARCINOMA) was “active; positive”; the carcinogen call (Species: MOUSE, Strain/Sex: B6C3F1/FEMALE, Route: ORAL, Dose: 0, 200, 600 PPM IN DIET FOR 2 YR (STUDY DURATION: 2 YR), Dose: 0, 200, 600 PPM IN DIET FOR 2 YR (STUDY DURATION: 2 YR), Tumor Site: Type of Lesion: LIVER: HEPATOCELLULAR ADENOMA, HEPATOCELLULAR CARCINOMA) was “active; positive”; the carcinogen call (Species: MOUSE, Strain/Sex: B6C3F1/MALE, Route: IN UTERO, ORAL, Dose: 0, 21 PPM IN DIET FED TO MOTHERS 1 WK BEFORE BREEDING, THROUGH BREEDING, GESTATION AND LACTATION, THEN DIETS WITH 30 PPM) is “inactive; negative”. The carcinogen call reads like this: (Species: MOUSE, Strain/Sex: B6C3F1/MALE, Route: IN UTERO, ORAL, Dose: 0, 70 PPM IN DIET FED TO MOTHERS 1 WK BEFORE BREEDING, THROUGH BREEDING, GESTATION AND LACTATION, THEN DIETS WITH 100 PP) “inactive; negative”; (Species: MOUSE, Strain/Sex: B6C3F1/MALE, Route: IN UTERO, ORAL, Dose: 0, 210 PPM IN DIET FED TO MOTHERS 1 WK BEFORE BREEDING, THROUGH BREEDING, GESTATION AND LACTATION, THEN DIETS WITH 0, 10) “inactive; negative”; (Species: MOUSE, Strain/Sex: B6C3F1/MALE, Route: ORAL, Dose: 0, 100, 300 PPM IN DIET FOR 2 YR (STUDY DURATION: 2 YR), Dose: 0, 100, 300 PPM IN DIET FOR 2 YR (STUDY DURATION: 2 YR)) “inactive; negative”; (Species: RAT, Strain/Sex: F344/DUCRJ/FEMALE, Route: ORAL, Dose: 0, 0.025, 0.05% IN BASAL DIET FOR 2 YR (STUDY DURATION: 112 WK), Dose: 0, 0.025, 0.05% IN BASAL DIET FOR 2 YR (STUDY DURATION: 112 WK)) “inactive; negative”; (Species: RAT, Strain/Sex: F344/DUCRJ/MALE, Route: ORAL, Dose: 0, 0.025, 0.05% IN BASAL DIET FOR 2 YR (STUDY DURATION: 112 WK), Dose: 0, 0.025, 0.05% IN BASAL DIET FOR 2 YR (STUDY DURATION: 112 WK)) “inactive; negative”; (Species: RAT, Strain/Sex: F344/FEMALE, Route: IN UTERO, ORAL, Dose: 0, 63 PPM IN DIET FED TO MOTHERS 1 WK BEFORE BREEDING, THROUGH BREEDING, GESTATION AND LACTATION, THEN DIETS WITH 240 PP) “inactive; negative”. Further, the carcinogen call is, setting by setting: (Species: RAT, Strain/Sex: F344/FEMALE, Route: IN UTERO, ORAL, Dose: 0, 210 PPM IN DIET FED TO MOTHERS 1 WK BEFORE BREEDING, THROUGH BREEDING, GESTATION AND LACTATION, THEN DIETS WITH 800 P) “inactive; negative”; (Species: RAT, Strain/Sex: F344/FEMALE, Route: IN UTERO, ORAL, Dose: 0, 630 PPM IN DIET FED TO MOTHERS 1 WK BEFORE BREEDING, THROUGH BREEDING, GESTATION AND LACTATION, THEN DIETS WITH 0, 80) “inactive; negative”; (Species: RAT, Strain/Sex: F344/FEMALE, Route: ORAL, Dose: 0, 800, 2400 PPM IN DIET FOR 2 YR (STUDY DURATION: 2 YR), Dose: 0, 800, 2400 PPM IN DIET FOR 2 YR (STUDY DURATION: 2 YR)) “inactive; negative”; (Species: RAT, Strain/Sex: F344/MALE, Route: IN UTERO, ORAL, Dose: 0, 63 PPM IN DIET FED TO MOTHERS 1 WK BEFORE BREEDING, THROUGH BREEDING, GESTATION AND LACTATION, THEN DIETS WITH 240 PP) “inactive; negative”; (Species: RAT, Strain/Sex: F344/MALE, Route: IN UTERO, ORAL, Dose: 0, 210 PPM IN DIET FED TO MOTHERS 1 WK BEFORE BREEDING, THROUGH BREEDING, GESTATION AND LACTATION, THEN DIETS WITH 800 P) “inactive; negative”; (Species: RAT, Strain/Sex: F344/MALE, Route: IN UTERO, ORAL, Dose: 0, 630 PPM IN DIET FED TO MOTHERS 1 WK BEFORE BREEDING, THROUGH BREEDING, GESTATION AND LACTATION, THEN DIETS WITH 0, 80) “inactive; negative”. Further, the carcinogen call (Species: RAT, Strain/Sex: F344/MALE, Route: ORAL, Dose: 0, 800, 2400 PPM IN DIET FOR 2 YR (STUDY DURATION: 2 YR), Dose: 0, 800, 2400 PPM IN DIET FOR 2 YR (STUDY DURATION: 2 YR), Tumor Site: Type of Lesion: LIVER: HEPATOCELLULAR ADENOMA OR CARCINOMA) is “equivocal”.

`CCOP(=S)(OCC)Oc1ccc([N+](=O)[O-])cc1`: the carcinogen call was “inactive; negative” (Species: MOUSE, Strain/Sex: B6C3F1/FEMALE, Route: ORAL, Dose: 0, 80, 160 PPM IN DIET, Dose: 0, 80, 160 PPM IN DIET); “inactive; negative” (Species: MOUSE, Strain/Sex: B6C3F1/MALE, Route: ORAL, Dose: 0, 80, 160 PPM IN DIET, Dose: 0, 80, 160 PPM IN DIET); “equivocal” (Species: RAT, Strain/Sex: OSBORNE-MENDEL/FEMALE, Route: ORAL, Dose: 0, 23, 45 PPM IN DIET FOR 80 WK (STUDY DURATION: 112-113 WK), Dose: 0, 23, 45 PPM IN DIET FOR 80 WK (STUDY DURATION: 112-113 WK), Tumor Site: Type of Lesion: ADRENAL GLAND: CORTICAL ADENOMA OR CARCINOMA); “equivocal” (Species: RAT, Strain/Sex: OSBORNE-MENDEL/MALE, Route: ORAL, Dose: 0, 32, 63 PPM IN DIET FOR 80 WK (STUDY DURATION: 112-113 WK), Dose: 0, 32, 63 PPM IN DIET FOR 80 WK (STUDY DURATION: 112-113 WK), Tumor Site: Type of Lesion: ADRENAL GLAND: CORTICAL ADENOMA OR CARCINOMA).

Regarding `CO/N=C(/C1=NOCCO1)c1ccccc1Oc1ncnc(Oc2ccccc2Cl)c1F`, the carcinogen call by setting is: (Species: Mouse, Strain/Sex: CD-1/Female (50/Group), Route: Oral, Dose: 0, 29.5, 204.0, 1265.1 mg/kg/day of 94.3% - 94.5% fluoxastrobin in diet for 18 mo, study duration 18 mo, Dose: 0, 29.5, 204.0, 1265.1 mg/kg/day of 94.3% - 94.5% fluoxastrobin in diet for 18 mo, study duration 18 mo) “inactive; negative”; (Species: Mouse, Strain/Sex: CD-1/Male (50/Group), Route: Oral, Dose: 0, 18.6, 135.4, 775.6 mg/kg/day of 94.3% - 94.5% fluoxastrobin in diet for 18 mo, study duration 18 mo, Dose: 0, 18.6, 135.4, 775.6 mg/kg/day of 94.3% - 94.5% fluoxastrobin in diet for 18 mo, study duration 18 mo) “inactive; negative”; (Species: Rat, Strain/Sex: Wistar/Female (50/Group), Route: Oral, Dose: 0, 6.9, 35.2, 181.3, 1083.2 mg/kg/day of 94.3-94.6% fluoxastrobin in diet for 2 yr, study duration 2 yr, Dose: 0, 6.9, 35.2, 181.3, 1083.2 mg/kg/day of 94.3-94.6% fluoxastrobin in diet for 2 yr, study duration 2 yr, Tumor Site: Type of Lesion: Uterus: adenocarcinoma (highest dose only)) “active; positive”; (Species: Rat, Strain/Sex: Wistar/Male (50/Group), Route: Oral, Dose: 0, 2.1, 5.2, 53.0, 271.9 mg/kg/day of 94.3-94.6% fluoxastrobin in diet for 2 yr, study duration 2 yr, Dose: 0, 2.1, 5.2, 53.0, 271.9 mg/kg/day of 94.3-94.6% fluoxastrobin in diet for 2 yr, study duration 2 yr) “inactive; negative”.
